Patent US20180344798A1, “TOPICALLY ACTIVE PEPTIDES FOR TREATING COSMETIC AND DERMATOLOGICAL CONDITIONS” (priority 2017, published 2018)
Values joined by “and” are separate entries in the source; they are usually repeats but may differ in a detail not shown here. Equal values may be shown once.

Tests used:
[1] = route of dosing not described; U.S. Pat. No. 5,798,335; cited from earlier work
[2] = test system: normal human epidermal keratinocytes; conditions: Hu, Paoletti, 2013; cited from earlier work
[3] = test system: plasma inflammatory cytokines; conditions: Ruff, cited from earlier work
[4] = aqueous solutions; U.S. Pat. No. 7,390,788; cited from earlier work
[5] = test system: rodent spinal cord tissue; conditions: Rat, Padi, 2012; cited from earlier work
[6] = topical oil/water lotion 50 μg/ml, 2× per day, 28 days
Protocol: Self-reported “Severity Scores” on a scale of 1-10 (with 10 being most severe) were recorded in a daily symptom report form to record the symptom score and compliance. The change from baseline is plotted for the day 0, 7, 14, 21, 28 and 35 (one week “off” treatment) symptom scores.
Topical administration of all-D-TTNYT (SEQ ID NO: 1) was formulated in an oil/water lotion consisting of deionized water, caprylic/capric triglyceride, polyglyceryl-6-stearate, polyglyceryl-6-behenate, cetearyl alcohol, and glyceryl stearate.

[7] = test system: TLR4-mediated maturation of dendritic cells
Protocol: To determine whether all-D-TTNYT (SEQ ID NO: 1) blocks maturation of dendritic cells human PBMC's were isolated from peripheral blood by Ficoll-Paque centrifugation and then monocytes were isolated by negative selection using immunobeads (Miltenyi). Human monocyte derived immature dendritic cells (iDCs) were then generated by treating monocytes with GM-CSF/IL4 for 5 days.
The iDCs were treated with all-D-TTNYT (SEQ ID NO: 1) at 10^−12 M for 30 min. After 30 min LPS (100 ng/ml) was added to the cells and cells were analyzed after 48 hrs for surface maturation markers using fluorescent labeled antibodies by flow cytometry. […] The surface markers control T cell activation and localization in tissues. DCs, like microglia, are derived from differentiated monocytes and serve as the innate and adaptive sentinel cells of the skin and brain, respectively. Blockade of DC or microglial activation would suppress inflammation.

[8] = test system: DC maturation caused by LL37 (IGF-1R)
[9] = test system: response to bradykinin; conditions: amounts up to 50,000 times the standard challenge of bradykinin; cited from earlier work
[10] = Hu, DAPTA administered for 7 weeks
[11] = Hu dendritic cells, peptide 10^-12 M 30 min, then LPS 100 ng/ml, 48 hrs, unpublished

In the case of Dalal-peptide T-amide [DAPTA], the “improvement of eczema/dermatitis in dogs” value [1] is listed as “Improvement in two dogs with dermatitis, mild improvement in five cases of erythema, and no improvement in ten cases”, the ICAM1 change [2] is listed as “decrease” and the IL-6 change [2] is listed as “decrease”. For the same substance, the IL-8 change [2] was “decrease”, the IL-23 change [2] was “decrease” and the pSTAT3 change [2] was “decrease”. The IL-1 change [3, 10] was “decrease”, the IL-6 change [3, 10] was “decrease” and the IL-8 change [3, 10] was “decrease”. For the same substance, the TNFα change [3, 10] was “decrease”, the “anti-inflammatory cytokine IL-10 (M2-type) change” value ([3]; human subjects, DAPTA for 7 weeks) was “increased” and the “aggregation and loss of potency upon storage” value [4] was “high propensity for DAPTA to aggregate and lose potency”.

For all-D-TTNYT, the IL-1β change [5] is listed as “decrease”, the IL-6 change [5] is listed as “decrease” and the “self-reported Severity Scores in dermatocosmetic conditions” value ([6]; five subjects, scale 1-10) is listed as “improved”. For the same substance, the “appearance of rosacea, atopic dermatitis, and psoriasis” value ([6]; subject reports) was “improvements in the appearance of rosacea, atopic dermatitis, and psoriasis”, the CD58 change [7, 11] was “decrease” and the CD86 change [7, 11] was “decrease”. The DR change [7, 11] was “decrease”, the ICAM1 change [7, 11] was “decrease” and the “expression of maturation markers CD86, HLA-DR, CD58 and ICAM1” value ([7]; iDCs pre-treated with peptide, then LPS, flow cytometry) was “reduces expression of all the maturation markers”. The “effect on DC maturation of the four markers caused by LL37” value [8] was “no effect”.

In the case of all-D-TTNYT-NH2, the “Timed Walk, Post” value (after topical lotion 50 μg/ml, 2× per day to feet, 28 days, measured fixed distance) is reported as 24 s, the “Pain Score, Post” value (after topical lotion 50 μg/ml, 2× per day to feet, 28 days, scale 1-10, per subject) is reported as 3 and the “Timed Walk, Pre” value (before treatment (baseline), measured fixed distance) is reported as 48 s. The “Pain Score, Pre” value (before treatment (baseline), self-reported scale 1-10, per subject) was 7 and 6 and the “pain sensitivity on self-reported Severity Scores” value (two subjects with diabetic neuropathy symptoms, topical lotion 50 μg/ml, 2× per day) was “Reduced pain sensitivity”.

In the case of all-D-bradykinin, the “inhibition of the response to bradykinin or bradykinin-like effect” value [9] is given as “neither any inhibition of the response to bradykinin, or any bradykinin-like effect”.
